Experimental data from patent US8586755B2, “Substituted nicotinamides as KCNQ2/3 modulators” (Grünenthal GmbH, priority 2009, dated 2013).

Target: T1, KCNQ2/3 channels (Homo sapiens, UniProt O43525+O43526)
T1 construct: expressed in transfected cells
Assay: Fluorescence assay using a voltage sensitive dye (fluorimetry)
Format: cell-based
Settings: CHO-K1 cells expressing KCNQ2/3 channels; for EC50: agonistic activity; for Emax: read-out: Fluorimetry % efficacy (retigabine 50 μM = 100%)
Summary of the method: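 Agonist EC50s come from the F2 vs F1 fluorescence comparison, F2 taken at the peak after KCl depolarisation (92 mM final) and F1 after 30 min compound exposure at room temperature. Assay uses KCNQ2/3-expressing CHO-K1 cells stained 45 min with a red voltage-sensitive dye in pH 7.4 ES buffer.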

SMILES | EC50 [µM] | Emax (retigabine 50 μM = 100%) [%] | Fluorimetry % efficacy (retigabine 50 μM = 100%) (retigabine 50 μM = 100%) [%]
CC(C)(CCNC(=O)c1cccnc1SCCCc1ccc(F)cc1)c1ccccc1 [compound 163, 2-[3-(4-Fluorophenyl)-propylsulfanyl]-N-(3-methyl-3-phenyl-butyl)-pyridine-3-carboxylic acid amide] | 0.537 | 89 | 
CC(C)(C)CCNC(=O)c1cccnc1SCC(=O)Cc1ccccc1 [compound 167] | 2.71 |  | 77
COCCNC(=O)c1cccnc1SCCC(F)(F)c1ccc(F)cc1 [compound 171, 2-[[3,3-Difluoro-3-(4-fluorophenyl)-propyl]sulfanyl]-N-(2-methoxy-ethyl)-pyridine-3-carboxylic acid amide] | 0.432 | 181 | 
COCCNC(=O)c1cccnc1SCCCc1ccc(F)cc1 [compound 172, 2-[3-(4-Fluorophenyl)-propylsulfanyl]-N-(2-methoxy-ethyl)-pyridine-3-carboxylic acid amide] | 1.05 | 196 | 
O=C(NCC1CCCO1)c1cccnc1SCCC(F)(F)c1ccc(F)cc1 (centres unmarked) [compound 179, 2-[[3,3-Difluoro-3-(4-fluorophenyl)-propyl]sulfanyl]-N-(tetrahydro-furan-2-yl-methyl)-pyridine-3-carboxylic acid amide] | 0.378 | 234 | 
O=C(NCC1CCCO1)c1cccnc1SCCCc1ccc(F)cc1 (centres unmarked) [compound 181, 2-[3-(4-Fluorophenyl)-propylsulfanyl]-N-(tetrahydro-furan-2-yl-methyl)-pyridine-3-carboxylic acid amide] | 1.55 | 254 | 
COC(CNC(=O)c1cccnc1SCCCc1ccc(F)cc1)C(C)(C)C (centres unmarked) [compound 182, 2-[3-(4-Fluorophenyl)-propylsulfanyl]-N-(2-methoxy-3,3-dimethyl-butyl)-pyridine-3-carboxylic acid amide] | 0.366 | 110 | 
Cc1cc(C)cc(CNC(=O)c2cccnc2SCCC(F)(F)c2ccc(F)cc2)c1 [compound 184, 2-[[3,3-Difluoro-3-(4-fluorophenyl)-propyl]sulfanyl]-N-[(3,5-dimethyl-phenyl)-methyl]-pyridine-3-carboxylic acid amide] |  | 23 | 
CCCCCCNC(=O)c1cccnc1SCCC(F)(F)c1ccc(F)cc1 [compound 186, 2-[[3,3-Difluoro-3-(4-fluorophenyl)-propyl]sulfanyl]-N-hexyl-pyridine-3-carboxylic acid amide] | 0.236 | 191 | 
O=C(NCC1CCOC1)c1cccnc1SCCC(F)(F)c1ccc(F)cc1 (centres unmarked) [compound 187, 2-[[3,3-Difluoro-3-(4-fluorophenyl)-propyl]sulfanyl]-N-(tetrahydro-furan-3-yl-methyl)-pyridine-3-carboxylic acid amide] | 0.805 | 231 | 
O=C(NCC1CCCOC1)c1cccnc1SCCC(F)(F)c1ccc(F)cc1 (centres unmarked) [compound 188, 2-[[3,3-Difluoro-3-(4-fluorophenyl)-propyl]sulfanyl]-N-(tetrahydro-pyran-3-yl-methyl)-pyridine-3-carboxylic acid amide] | 0.315 | 210 | 
O=C(NCC1CCOCC1)c1cccnc1SCCC(F)(F)c1ccc(F)cc1 [compound 189, 2-[[3,3-Difluoro-3-(4-fluorophenyl)-propyl]sulfanyl]-N-(tetrahydro-pyran-4-yl-methyl)-pyridine-3-carboxylic acid amide] | 0.287 | 161 | 
COC(C)CCNC(=O)c1cccnc1SCCC(F)(F)c1ccc(F)cc1 (centres unmarked) [compound 193, 2-[[3,3-Difluoro-3-(4-fluorophenyl)-propyl]sulfanyl]-N-(3-methoxy-butyl)-pyridine-3-carboxylic acid amide] | 0.371 | 206 | 
COC(C)CNC(=O)c1cccnc1SCCC(F)(F)c1ccc(F)cc1 (centres unmarked) [compound 194, 2-[[3,3-Difluoro-3-(4-fluorophenyl)-propyl]sulfanyl]-N-(2-methoxy-propyl)-pyridine-3-carboxylic acid amide] | 0.232 | 203 | 
COC(=O)CCNC(=O)c1cccnc1SCCC(F)(F)c1ccc(F)cc1 [compound 196, 3-[[2-[[3,3-Difluoro-3-(4-fluorophenyl)-propyl]sulfanyl]-pyridine-3-carbonyl]amino]-propionic acid methyl ester] | 3.71 | 190 | 
O=C(O)CCNC(=O)c1cccnc1SCCC(F)(F)c1ccc(F)cc1 [compound 197, 3-[[2-[[3,3-Difluoro-3-(4-fluorophenyl)-propyl]sulfanyl]-pyridine-3-carbonyl]amino]-propionic acid] | 14.7 | 128 | 
CN(C)CCNC(=O)c1cccnc1SCCC(F)(F)c1ccc(F)cc1 [compound 198, 2-[[3,3-Difluoro-3-(4-fluorophenyl)-propyl]sulfanyl]-N-(2-dimethylaminoethyl)-pyridine-3-carboxylic acid amide] | 8.84 | 110 | 

Other lines, results leading:

EC50 [µM] | Emax (retigabine 50 μM = 100%) [%] | Fluorimetry % efficacy (retigabine 50 μM = 100%) (retigabine 50 μM = 100%) [%] | SMILES
0.03 | 119 |  | O=C(NCc1ccc(F)cc1)c1cccnc1SCCC(F)(F)c1cccc(C(F)(F)F)c1 [compound 165, 2-[[3,3-Difluoro-3-[3-(trifluoromethyl)phenyl]-propyl]sulfanyl]-N-[(4-fluorophenyl)-methyl]-pyridine-3-carboxylic acid amide]
0.046 | 206 |  | CC(C)(C)CCNC(=O)c1cccnc1SCCC(F)(F)c1cccc(C(F)(F)F)c1 [compound 166, 2-[[3,3-Difluoro-3-[3-(trifluoromethyl)phenyl]-propyl]sulfanyl]-N-(3,3-dimethyl-butyl)-pyridine-3-carboxylic acid amide]
0.017 | 110 |  | O=C(NCc1cccc(F)c1)c1cccnc1SCCC(F)(F)c1ccc(F)cc1 [compound 168, 2-[[3,3-Difluoro-3-(4-fluorophenyl)-propyl]sulfanyl]-N-[(3-fluorophenyl)-methyl]-pyridine-3-carboxylic acid amide]
0.156 | 185 |  | O=C(NCc1ccc(F)cc1O)c1cccnc1SCCCc1ccc(F)cc1 [compound 173, N-[(4-Fluoro-2-hydroxy-phenyl)-methyl]-2-[3-(4-fluorophenyl)-propylsulfanyl]-pyridine-3-carboxylic acid amide]
0.134 | 213 |  | O=C(NCc1ccco1)c1cccnc1SCCCc1ccc(F)cc1 [compound 174, 2-[3-(4-Fluorophenyl)-propylsulfanyl]-N-(furan-2-yl-methyl)-pyridine-3-carboxylic acid amide]
0.126 | 173 |  | Cc1ccc(CNC(=O)c2cccnc2SCCCc2ccc(F)cc2)o1 [compound 175, 2-[3-(4-Fluorophenyl)-propylsulfanyl]-N-[(5-methyl-furan-2-yl)-methyl]-pyridine-3-carboxylic acid amide]
0.04 | 108 |  | CC(CCc1ccc(F)cc1)Sc1ncccc1C(=O)NCc1ccc(F)cc1 (centres unmarked) [compound 176, N-[(4-Fluorophenyl)-methyl]-2-[[3-(4-fluorophenyl)-1-methyl-propyl]sulfanyl]-pyridine-3-carboxylic acid amide]
0.076 | 192 |  | CC(C)CCNC(=O)c1cccnc1SC(C)CCc1ccc(F)cc1 (centres unmarked) [compound 177, 2-[[3-(4-Fluorophenyl)-1-methyl-propyl]sulfanyl]-N-(3-methyl-butyl)-pyridine-3-carboxylic acid amide]
0.096 | 270 |  | CC(CCc1ccc(F)cc1)Sc1ncccc1C(=O)NCC1C2CCC1CC2 (centres unmarked) [compound 178, N-(7-Bicyclo[2.2.1]heptanyl-methyl)-2-[[3-(4-fluorophenyl)-1-methyl-propyl]sulfanyl]-pyridine-3-carboxylic acid amide]
0.043 | 109 |  | Cc1cccc(CNC(=O)c2cccnc2SCCC(F)(F)c2ccc(F)cc2)c1 [compound 183, 2-[[3,3-Difluoro-3-(4-fluorophenyl)-propyl]sulfanyl]-N-(m-tolyl-methyl)-pyridine-3-carboxylic acid amide]
0.167 | 212 |  | CCCNC(=O)c1cccnc1SCCC(F)(F)c1ccc(F)cc1 [compound 185, 2-[[3,3-Difluoro-3-(4-fluorophenyl)-propyl]sulfanyl]-N-propyl-pyridine-3-carboxylic acid amide]
0.026 | 214 |  | O=C(NCc1ccco1)c1cccnc1SCCC(F)(F)c1ccc(F)cc1 [compound 190, 2-[[3,3-Difluoro-3-(4-fluorophenyl)-propyl]sulfanyl]-N-(furan-2-yl-methyl)-pyridine-3-carboxylic acid amide]
0.037 | 202 |  | Cc1ccc(CNC(=O)c2cccnc2SCCC(F)(F)c2ccc(F)cc2)o1 [compound 191, 2-[[3,3-Difluoro-3-(4-fluorophenyl)-propyl]sulfanyl]-N-[(5-methyl-furan-2-yl)-methyl]-pyridine-3-carboxylic acid amide]
0.032 | 195 |  | CCCCCNC(=O)c1cccnc1SCCC(F)(F)c1ccc(F)cc1 [compound 192, 2-[[3,3-Difluoro-3-(4-fluorophenyl)-propyl]sulfanyl]-N-pentyl-pyridine-3-carboxylic acid amide]
0.048 | 122 |  | CCC(CNC(=O)c1cccnc1SCCC(F)(F)c1ccc(F)cc1)OC (centres unmarked) [compound 195, 2-[[3,3-Difluoro-3-(4-fluorophenyl)-propyl]sulfanyl]-N-(2-methoxy-butyl)-pyridine-3-carboxylic acid amide]
0.02 | 124 |  | CC(CCc1ccc(F)c(F)c1)Sc1ncccc1C(=O)NCc1ccc(F)cc1 (centres unmarked) [compound 199, 2-[[3-(3,4-Difluoro-phenyl)-1-methyl-propyl]sulfanyl]-N-[(4-fluorophenyl)-methyl]-pyridine-3-carboxylic acid amide]
